Data: US20240287070A1, “FUSED HETEROCYCLIC DERIVATIVES” (Janssen Sciences Ireland Unlimited Company, priority 2021, published 2024)

Key:
[1] = test system: HBV (HepG2.117 cell line, inducibly HBV producing); experiment: Anti-HBV activity, intracellular HBV DNA by real-time PCR in HepG2.117 cell line; format: cell-based, hepatitis B virus; conditions: HepG2.117 cells, 3 days of treatment
Description: The anti HBV activity was measured using the HepG2.117 cell line, a stable, inducibly HBV producing cell line, which replicates HBV in the absence of doxycycline (Tet-off system). The HepG2 cell line is available from ATCCR under number HB-8065. Transfection of the HepG2 cell line can be as described in Sun and Nassal 2006 Journal of Hepatology 45 (2006) 636-645 “Stable HepG2- and Huh7-based human hepatoma cell lines for efficient regulated expression of infectious hepatitis B virus”.
For the antiviral assay, HBV replication was induced, followed by a treatment with serially diluted compound in 96-well plates. After 3 days of treatment, the antiviral activity was determined by quantification of intracellular HBV DNA using real-time PCR and an HBV specific primer set and probe.

[2] = Cytotoxicity, ATPlite Luminescence Assay; format: cell-based, human; conditions: human, HepG2 or HepG2.117 cells, 3-days incubation unless marked with *
Description: Cytotoxicity of the compounds was tested using HepG2 or HepG2.117 cells, incubated for 3 or 4 days in the presence of compounds. The viability of the cells was assessed using the PERKIN ELMER ATPlite Luminescence Assay System.”

[3] = Human liver microsome stability; format: in vitro ADME; conditions: 1 μM compound, NADPH 1 mM, 37° C., 0-60 min; for half-life at 1 μM: human, pooled human liver microsomes, pH 7.4, pooled human liver microsomes 0.5 mg/mL, read-out: HLM Metabolism t1/2
Description: Human Liver Microsome Stability t½ (Min) of Compounds of Formula (I) […] All incubations are performed singularly for each compound. NADPH was added to initiate the reaction with the final concentration of 1 mM and the final incubation volume of 400 μL. At 6 time points (0, 5, 10, 20, 40 and 60 min) reactions were stopped by the removal of 50 μL of the incubation mixture into plates containing acetonitrile at a of 1:3 (v:v). The plates were centrifuged at 3000 rpm for 10 min at 4° C. to precipitate the protein. Following protein precipitation, the sample supernatants were combined in cassettes of up to 8 compounds. The internal standard was added (1:1 supernatant to internal standard solution) and samples were analyzed using standard LC-MS conditions. From a plot of ln peak area ratio (compound peak area/internal standard peak area) against time, the gradient of the line is determined. Subsequently, half-life is calculated using the equations below: Elimination rate constant (k)=(−gradient) […]

[4] = Hepatitis B virus, HepG2.117, 72 h

CC(c1ccc(C2(O)CC2)cc1)N1C[C@@H](C)n2nc3c(c2C1=O)CN(C(=O)c1ccc(Cl)c(C#N)c1)[C@H](C)C3 (single isomer, unassigned) [Compound 14A, 2-Chloro-5-((3R,7R)-9-((R*)-1-(4-(1-hydroxycyclopropyl)phenyl)ethyl)-3,7-dimethyl-10-oxo-1,2,3,4,7,8,9,10-octahydropyrido[4′,3′:3,4]pyrazolo[1,5-a]pyrazine-2-carbonyl)benzonitrile]
EC50 [1, 4]: 0.012 µM | CC50 at 3 days [2]: > 50 µM | half-life at 1 μM [3]: 1.37 h

C[C@@H]1Cc2nn3c(c2CN1C(=O)c1ccc(Cl)c(C(F)(F)F)c1)C(=O)N([C@H](C)c1ccc([S@](C)(=N)=O)cc1)C[C@H]3C (relative stereo) [Compound 19A, (3R,7R)-2-(4-chloro-3-(trifluoromethyl)benzoyl)-3,7-dimethyl-9-((R*)-1-(4-((R*)—S-methylsulfonimidoyl)phenyl)ethyl)-1,2,3,4,8,9-hexahydropyrido[4′,3′:3,4]pyrazolo[1,5-a]pyrazin-10(7H)-one]
EC50 [1, 4]: 0.026 µM | CC50 at 3 days [2]: > 50 µM | half-life at 1 μM [3]: > 3 h

C[C@@H]1Cc2nn3c(c2CN1C(=O)c1ccc(Cl)c(C(F)(F)F)c1)C(=O)N([C@H](C)c1ccc([S@@](C)(=N)=O)cc1)C[C@H]3C (relative stereo) [Compound 19B, (3R,7R)-2-(4-chloro-3-(trifluoromethyl)benzoyl)-3,7-dimethyl-9-((R*)-1-(4-((S*)—S-methylsulfonimidoyl)phenyl)ethyl)-1,2,3,4,8,9-hexahydropyrido[4′,3′:3,4]pyrazolo[1,5-a]pyrazin-10(7H)-one]
EC50 [1, 4]: 0.015 µM | CC50 at 3 days [2]: > 50 µM | half-life at 1 μM [3]: > 3 h

CC(c1ncc(C(F)(F)F)cn1)N1C[C@@H](C)n2nc3c(c2C1=O)CN(C(=O)c1ccc(Cl)c(Cl)c1)[C@H](C)C3 (single isomer, unassigned) [Compound 40A, (3R,7R)-2-(3,4-dichlorobenzoyl)-3,7-dimethyl-9-((R*)-1-(5-(trifluoromethyl)pyrimidin-2-yl)ethyl)-1,2,3,4,8,9-hexahydropyrido[4′,3′:3,4]pyrazolo[1,5-a]pyrazin-10(7H)-one]
EC50 [1]: 0.054 µM | CC50 at 3 days [2]: 22 µM | half-life at 1 μM [3]: > 3 h

C[C@@H]1Cc2nn3c(c2CN1C(=O)c1ccc(Cl)c(C#N)c1)C(=O)N([C@H](C)c1ccc(OC(F)F)cc1)C[C@@H]3C (relative stereo) [Compound 1A, 2-Chloro-5-((3R,7S*)-9-((R*)-1-(4-(difluoromethoxy)phenyl)ethyl)-3,7-dimethyl-10-oxo-1,2,3,4,7,8,9,10-octahydropyrido[4′,3′:3,4]pyrazolo[1,5-a]pyrazine-2-carbonyl)benzonitrile]
EC50 [1, 4]: 0.21 µM | CC50 at 3 days [2]: > 50 µM | half-life at 1 μM [3]: 0.235 h

CC(c1ccc(C(C)(C)O)nc1)N1C[C@@H](C)n2nc3c(c2C1=O)CN(C(=O)c1ccc(Cl)c(F)c1F)[C@H](C)C3 (single isomer, unassigned) [Compound 61A, (3R,7R)-2-(4-chloro-2,3-difluorobenzoyl)-9-((R*)-1-(6-(2-hydroxypropan-2-yl)pyridin-3-yl)ethyl)-3,7-dimethyl-1,2,3,4,8,9-hexahydropyrido[4′,3′:3,4]pyrazolo[1,5-a]pyrazin-10(7H)-one]
EC50 [1]: 2.34 µM | CC50 at 3 days [2]: > 50 µM | half-life at 1 μM [3]: > 3 h

CC(c1ccc(C(C)(C)O)nc1)N1C[C@@H](C)n2nc3c(c2C1=O)CN(C(=O)c1ccc(Cl)c(F)c1)[C@H](C)C3 (single isomer, unassigned) [Compound 59A, (3R,7R)-2-(4-chloro-3-fluorobenzoyl)-9-((R*)-1-(6-(2-hydroxypropan-2-yl)pyridin-3-yl)ethyl)-3,7-dimethyl-1,2,3,4,8,9-hexahydropyrido[4′,3′:3,4]pyrazolo[1,5-a]pyrazin-10(7H)-one]
EC50 [1]: 0.51 µM | CC50 at 3 days [2]: > 50 µM | half-life at 1 μM [3]: > 3 h

CNC(=O)c1ccc(C(C)N2C[C@@H](C)n3nc4c(c3C2=O)CN(C(=O)c2ccc(Cl)c(Cl)c2)[C@H](C)C4)cn1 (single isomer, unassigned) [Compound 24A, 5-((R*)-1-((3R,7R)-2-(3,4-dichlorobenzoyl)-3,7-dimethyl-10-oxo-1,3,4,7,8,10-hexahydropyrido[4′,3′:3,4]pyrazolo[1,5-a]pyrazin-9(2H)-yl)ethyl)-N-methylpicolinamide]
EC50 [1, 4]: 0.038 µM | CC50 at 3 days [2]: > 50 µM | half-life at 1 μM [3]: > 3 h

C[C@@H]1Cc2nn3c(c2CN1C(=O)c1ccc(Cl)c(Cl)c1)C(=O)N([C@@H](C)c1ccc([S@](C)(=N)=O)cc1)C[C@H]3C (relative stereo) [Compound 18C, (3R,7R)-2-(3,4-dichlorobenzoyl)-3,7-dimethyl-9-((S*)-1-(4-((R*)—S-methylsulfonimidoyl)phenyl)ethyl)-1,2,3,4,8,9-hexahydropyrido[4′,3′:3,4]pyrazolo[1,5-a]pyrazin-10(7H)-one]
EC50 [1, 4]: 0.03 µM | CC50 at 3 days [2]: > 50 µM | half-life at 1 μM [3]: > 3 h

CC(c1ccc(-c2ccn(C)n2)cc1)N1C[C@@H](C)n2nc3c(c2C1=O)CN(C(=O)c1ccc(Cl)c(C#N)c1)[C@H](C)C3 (single isomer, unassigned) [Compound 21A, 2-Chloro-5-((3R,7R)-3,7-dimethyl-9-((R*)-1-(4-(1-methyl-1H-pyrazol-3-yl)phenyl)ethyl)-10-oxo-1,2,3,4,7,8,9,10-octahydropyrido[4′,3′:3,4]pyrazolo[1,5-a]pyrazine-2-carbonyl)benzonitrile]
EC50 [1]: 0.035 µM | CC50 at 3 days [2]: > 50 µM | HLM Metabolism t1/2 ([3]; pooled human liver microsomes 0.5 mg/mL): 0.98 h

CC(c1ccn(CC(C)(C)O)c(=O)c1)N1C[C@@H](C)n2nc3c(c2C1=O)CN(C(=O)c1ccc(Cl)c(C(F)(F)F)c1)[C@H](C)C3 (single isomer, unassigned) [Compound 64A, (3R,7R)-2-(4-chloro-3-(trifluoromethyl)benzoyl)-9-((R*)-1-(1-(2-hydroxy-2-methylpropyl)-2-oxo-1,2-dihydropyridin-4-yl)ethyl)-3,7-dimethyl-1,2,3,4,8,9-hexahydropyrido[4′,3′:3,4]pyrazolo[1,5-a]pyrazin-10(7H)-one]
EC50 [1]: 0.039 µM | CC50 at 3 days [2]: > 50 µM | half-life at 1 μM [3]: 1.82 h

CC(c1cc(F)c(=O)n(C2CC2)c1)N1C[C@@H](C)n2nc3c(c2C1=O)CN(C(=O)c1ccc(Cl)c(Cl)c1)[C@H](C)C3 (single isomer, unassigned) [Compound 46A, (3R,7R)-9-((R*)-1-(1-cyclopropyl-5-fluoro-6-oxo-1,6-dihydropyridin-3-yl)ethyl)-2-(3,4-dichlorobenzoyl)-3,7-dimethyl-1,2,3,4,8,9-hexahydropyrido[4′,3′:3,4]pyrazolo[1,5-a]pyrazin-10(7H)-one]
EC50 [1]: 0.31 µM | CC50 at 3 days [2]: > 50 µM | half-life at 1 μM [3]: > 3 h

CC(c1ccc(C(C)(C)O)nc1)N1C[C@@H](C)n2nc3c(c2C1=O)CN(C(=O)c1cc(F)c(Cl)c(F)c1)[C@H](C)C3 (single isomer, unassigned) [Compound 60A, (3R,7R)-2-(4-chloro-3,5-difluorobenzoyl)-9-((R*)-1-(6-(2-hydroxypropan-2-yl)pyridin-3-yl)ethyl)-3,7-dimethyl-1,2,3,4,8,9-hexahydropyrido[4′,3′:3,4]pyrazolo[1,5-a]pyrazin-10(7H)-one]
EC50 [1]: 0.3 µM | CC50 at 3 days [2]: > 50 µM | half-life at 1 μM [3]: > 3 h

CC(c1ccc(-n2cncn2)cc1)N1C[C@@H](C)n2nc3c(c2C1=O)CN(C(=O)c1ccc(Cl)c(C#N)c1)[C@H](C)C3 (single isomer, unassigned) [Compound 11A, 5-((3R,7R)-9-((R*)-1-(4-(1H-1,2,4-Triazol-1-yl)phenyl)ethyl)-3,7-dimethyl-10-oxo-1,2,3,4,7,8,9,10-octahydropyrido[4′,3′:3,4]pyrazolo[1,5-a]pyrazine-2-carbonyl)-2-chlorobenzonitrile]
EC50 [1, 4]: 0.039 µM | CC50 at 3 days [2]: > 50 µM | half-life at 1 μM [3]: > 3 h

CC(c1cc(F)c(=O)n(C)c1)N1C[C@@H](C)n2nc3c(c2C1=O)CN(C(=O)c1ccc(Cl)c(Cl)c1)[C@H](C)C3 (single isomer, unassigned) [Compound 45B, (3R,7R)-2-(3,4-dichlorobenzoyl)-9-((S*)-1-(5-fluoro-1-methyl-6-oxo-1,6-dihydropyridin-3-yl)ethyl)-3,7-dimethyl-1,2,3,4,8,9-hexahydropyrido[4′,3′:3,4]pyrazolo [1,5-a]pyrazin-10(7H)-one]
EC50 [1, 4]: 0.027 µM | CC50 at 3 days [2]: > 50 µM | half-life at 1 μM [3]: > 3 h
